From patent EP1187837B1, “THIAZEPINE INHIBITORS OF HIV-1 INTEGRASE” (THE UNITED STATES GOVERNMENT as represented by THE …, priority 1999, dated 2000)
Values joined by “and” are separate entries in the source; they are usually repeats but may differ in a detail not shown here. Equal values may be shown once. Read-outs that look alike come from different tables or passages of the source.

How the values were obtained:
[1] = molecular target: T1, purified human immunodeficiency virus type-1 integrase (HIV-1 IN) (Human immunodeficiency virus type 1 group M subtype B, UniProt P12497); assay: Integrase assay: 3'-processing and strand transfer (3'-end joining), 32P-labeled oligonucleotide, gel/PhosphorImager, Mn2+ cofactor; settings: purified IN 200 nM, 7.5 mM MnCl2, 30°C;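 further: enzyme at 200 nM preincubated with inhibitor 30 min at 30°C, then 20 nM labeled 21-mer DNA for 1 h, inhibition relative to enzyme without drug, background from DNA alone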
Description: (§1) The HPLC purified oligonucleotides AE117 (5'-[sequence]-3'); AE118 (5'-[sequence]-3'); AE157 (5'-[sequence]-3'); AE146 (5'-[sequence]-3'); AE156 (5'-[sequence]-3'); RM22M (5'-[sequence]-3'); and RMAB2 (5'-[sequence]-3') were purchased from Midland Certified Reagent Company (Midland, TX). An expression system for the wild-type integrase and the IN^50-212 (F185K) were obtained from the Laboratory of Molecular Biology, NIDDK, NIH, Bethesda, MD.
(§2) To analyze the extent of 3'-processing and strand transfer using 5'-end labeled substrates, AE118 was 5'-end labeled using T4 polynucleotide kinase (Gibco BRL) and γ[^32P]-ATP (Dupont-NEN). […] The kinase was heat-inactivated and AE117 was added to the same final concentration. The mixture was heated at 95°C, allowed to cool slowly to room temperature, and run through a G-25 Sephadex quick spin column (Boehringer Mannheim, Indianapolis, IN) to separate annealed double-stranded oligonucleotide from unincorporated label.
(§3) To determine the extent of 3'-processing and strand transfer, integrase was preincubated at a final concentration of 200 nM with the inhibitor in a reaction buffer (50 mM NaCl, 1 mM HEPES, pH 7.5, 50 µM EDTA, 50 µM dithiothreitol, 10% glycerol (w/v), 7.5 mM MnCl2, 0.1 mg/ml bovine serum albumin, 10 mM 2-mercaptoethanol, 10% dimethyl sulfoxide, and 25 mM MOPS, pH 7.2) at 30°C for 30 minutes. Then, 20 nM of the 5'-end ^32P-labeled linear oligonucleotide substrate was added, and incubation was continued for an additional one hour. Reactions were quenched by the addition of an equal volume (16 µl) of loading dye (98% deionized formamide, 10 mM EDTA, 0.025% xylene cyanol and 0.025% bromophenol blue). An aliquot (5 µl) was electrophoresed on a denaturing 20% polyacrylamide gel (0.09 M tris-borate pH 8.3, 2 mM EDTA, 20% acrylamide, 8M urea).
(§4) Gels were dried, exposed in a PhosphorImager cassette, and analyzed using a Molecular Dynamics PhosphorImager (Sunnyvale, CA). Percent inhibition was calculated using the following equation: %I = 100 X [1-(D-C)/(N-C)] [formula] where C, N, and D are the fractions of 21-mer substrate converted to 19-mer (3'-processing product) or strand transfer products for DNA alone (C), DNA plus integrase (N), and integrase plus drug (D). All IC50 values were determined by plotting the drug concentration versus percent inhibition, and determining the concentration which produced 50% inhibition.

[2] = Cytotoxicity control in uninfected CEM cells (XTT formazan); assay type: cell-based; settings: human, read-out: Cell data (µM) CC50: 50% cytotoxic concentration; for CC50 at 6 days: uninfected T4 lymphocytes (CEM cell line); for CC50 at 144 h: 6 days
Description: (§5) The anti-HIV drug testing was performed at NCI based on a protocol described by Weislow et al.^36 All compounds were dissolved in dimethyl sulfoxide and diluted 1:100 in cell culture medium. Exponentially growing T4 lymphocytes (CEM cell line) were added at 5000 cells per well. Frozen virus stock solutions were thawed immediately before use, suspended in complete medium to yield the desired multiplicity of infection (m. o. i. ≈ 0.1), and added to the microtiter wells, resulting in a 1:200 final dilution of the compound. Uninfected cells with the compound served as a toxicity control, and infected and uninfected cells without the compound served as basic controls.
(§6) Cultures were incubated at 37°C in a 5% CO2 atmosphere for 6 days. The tetrazolium salt, XTT was added to all wells, and cultures were incubated to allow formazan color development by viable cells. Individual wells were analyzed spectrophotometrically to quantitate formazan production, and in addition were viewed microscopically for detection of viable cells and confirmation of protective activity.

[3] = molecular target: T1, purified human immunodeficiency virus type-1 integrase (HIV-1 IN); assay: biochemical
Description: as §1, §2, §3, §4

HIV-1 infected CEM cells = assay: Anti-HIV assay in cultured CEM cells (NCI Antiviral Drug Screen, XTT formazan); assay type: cell-based
Description: as §5, §6

HIV-1 IN = molecular target: T2, HIV-1 IN (Human immunodeficiency virus type 1 group M subtype B, UniProt P12497); assay: Integrase assay with Mg+2 as cofactor; assay type: biochemical; settings: compared with Mn+2
T2 construct: An expression system for the wild-type integrase; made in house
Description: A 21-mer oligonucleotide corresponding to the last 21 bases on the HIV-1 viral DNA in the U5 region of long terminal repeat (LTR) was radiolabeled with ^32P. This is shown in the Figs. 2 and 3 as a band corresponding to DNA alone. Integrase will cleave the last two bases of this DNA in the presence of Mn^+2 or Mg^+2 to give a 19-mer DNA substrate (lane 2) which runs faster on the gel and is indicated as 19-mer on the Figures. When an inhibitor is added this process is blocked, therefore the original 21-mer DNA would not be cut. When an inhibitor is added at various concentrations, percent inhibition at every concentration will be calculated by quantification of the intensity of each band using an Imagequant program.
The gels are run using polyacrylamide according to the standard procedures. Upon completion of electrophoresis run, the gels are dried and exposed to a phosphorimager cassette. The cassettes are analyzed by the phosphorimager, and the bands are shown on a computer screen. The intensity of each band is quantitated, plotted against concentrations of drugs, and the IC50 values are calculated from the graphs.

[4] = molecular target: T1, purified human immunodeficiency virus type-1 integrase (HIV-1 IN)
Description: as §1, §2, §3, §4

[5] = Integrase Assay IC50 (µM) 3'-Processing
[6] = Human immunodeficiency virus 1, CCRF-CEM, 144 h, HIV-1 infected CEM cells, 6 days, XTT, read-out: Cell data (µM) EC60: 50% effective concentration
[7] = Human immunodeficiency virus 1, CCRF-CEM, 144 h, read-out: Cell data (µM) EC60: 50% effective concentration, HIV-1 infected CEM cells, 6 days, XTT
[8] = read-out: Integrase Assay IC50 (µM) 3'-Processing

SMILES | IC50 [1, 5] | IC50 [3] | EC50 (HIV-1 infected CEM cells; [7]) [µM] | also measured
O=C1Sc2ccc(Cl)cc2C(=O)N2CCSC12 (racemic) [Compound 2, (±)-7-Chloro-2,3-dihydro-5H-thiazolo[2,3-c][1,4]benzothiazepine-5,11 (11aH)-dione] | 151 µM and 105 µM | 120 µM and 60 µM | – | CC50 at 6 days [2]: > 50 µM; EC50 (HIV-1 infected CEM cells; [6]): > 50 µM
O=C1Sc2ccc(Br)cc2C(=O)N2CCSC12 (racemic) [Compound 3, (±)-7-Bromo-2,3-dihydro-5H-thiazolo[2,3-c][1,4]benzothiazepine-5,11 (11aH)-dione] | 58 ± 15 µM | 48 ± 18 µM | – | –
O=C1Sc2ccccc2C(=O)N2CSCC12 (racemic) [Compound 5] | – | – | > 200 | –
O=C1Sc2ccc(Cl)cc2C(=O)N2CSCC12 (racemic) [Compound 6, (±)-7-Chloro-1,11a-dihydro-3H,5H,11H-thiazolo[4,3-c][1,4] benzothiazepine-5,11-dione] | 158 µM and 111 µM | 160 µM and 110 µM | – | CC50 at 6 days [2]: > 100 µM; EC50 (HIV-1 infected CEM cells; [6]): > 100 µM
O=C1Sc2ccc(Br)cc2C(=O)N2CSCC12 (racemic) [Compound 7, (±)-7-Bromo-1,11a-dihydro-3H,5H,11H-thiazolo[4,3-c][1,4] benzothiazepine-5,11-dione] | 87 ± 24 µM | 74 ± 32 µM | – | CC50 at 6 days [2]: > 200 µM; EC50 (HIV-1 infected CEM cells; [6]): > 200 µM
Cc1ccc2c(c1)C(=O)N1CSCC1C(=O)S2 (racemic) [Compound 8, (±)-1,11a-Dihydro-7-methyl-3H,5H,11H-thiazolo[4,3-c][1,4] benzothiazepine-5,11-dione] | 52 µM | 63 µM | – | CC50 at 6 days [2]: 35 µM
O=C1Sc2cc([N+](=O)[O-])ccc2C(=O)N2CSCC12 (racemic) [Compound 9, (±)-1,11a-Dihydro-8-nitro-3H,5H,11H-thiazolo[4,3-c][1,4] benzothiazepine-5,11-dione] | 90 ± 27 µM | 100 ± 36 µM | – | CC50 at 6 days [2]: > 50 µM; EC50 (HIV-1 infected CEM cells; [6]): > 50 µM
COc1ccc2c(c1)C(=O)N1CSCC1C(=O)S2 (racemic) [Compound 10, (±)-1,11a-dihydro-7-methoxy-3H,5H,11H-thiazolo[4,3-c][1,4]benzothiazepine-5,11-dione] | 155 µM and 275 µM | 155 µM and 245 µM | – | CC50 at 6 days [2]: > 200 µM; EC50 (HIV-1 infected CEM cells; [6]): > 200 µM
O=C1Sc2ccccc2C(=O)N2COCC12 (racemic) [Compound 12, (±)-1,11a-Dihydro-3H,5H,11H-oxazolo[4,3-c][1,4]benzothiazepine-5,11-dione] | > 333 µM | > 333 µM | – | –
Cc1ccc2c(c1)C(=O)N1CC[S@@+]([O-])[C@@H]1C(=O)S2 (racemic) [Compound 15, (±)-cis-2,3-Dihydro-7-methyl-5H-thiazolo[2,3-c][1,4]benzothiazepme-5,11 (11aH)-dione 1-Oxide] | – | – | > 100 | CC50 at 144 h [2]: > 100 µM
O=C1Sc2cc3ccccc3cc2C(=O)N2CCSC12 (racemic) [Compound 19, (±)-2,3-Dihydro-5H-naphto[2,3-f]thiazolo[2,3-c][1,4]thiazepine-5,13(13aH)-dione] | – | – | 60 | inhibition of IN in the presence of Mg+2 (HIV-1 IN): active in the presence of Mg^+2 within the same concentration range as in Mn^+2
O=C1Sc2cc3ccccc3cc2C(=O)N2CSCC12 (racemic) [Compound 20, (±)-1,13a-Dihydro-3H,5H,11H-naphto[2,3-f]thiazolo[4,3-c][1,4] thiazepine-5,13-dione] | – | – | 279 to 286 | inhibition of IN in the presence of Mg+2 (HIV-1 IN): active in the presence of Mg^+2 within the same concentration range as in Mn^+2
O=C1c2ccccc2SC(O)(c2ccccc2)C2CCCN12 (racemic) [Compound 26, (±)-2,3,11,11a-Tetrahydro-11-hydroxy-11-phenyl-1H,5H-pyrrolo [2,1-c][1,4]benzothiazepin-5-one] | > 1000 µM | > 1000 µM | – | –
CN1CCN([C@@H]2Sc3ccccc3C(=O)N3CCC[C@@H]23)CC1 (racemic) [Compound 27, (±)-cis-2,3,11,11a-Tetrahydro-11-(4-methylpiperazin-1-yl)-1H,5H-pyrrolo[2,1-c][1,4]benzothiazepin-5-one] | > 1000 µM | > 1000 µM | – | CC50 at 6 days [2]: > 125 µM; EC50 (HIV-1 infected CEM cells; [6]): > 125 µM
CN1CCN(Cc2ccc3n2Cc2ccccc2SC3c2ccccc2)CC1 (racemic) [Compound 31, (±)-3-[(4-Methylpiperazin-1-yl)methyl]-11-phenyl-5H,11H-pyrrolo [2,1-c][1,4]benzothiazepine] | > 1000 µM | > 1000 µM | – | –
O=C1Sc2ccccc2C(=O)N2CCSC12 (centres unmarked) [Compound 1] | – | – | 107 ± 26 | inhibition of IN in the presence of Mg+2 (HIV-1 IN): active in the presence of Mg^+2 within the same concentration range as in Mn^+2; EC50 (HIV-1 infected CEM cells; HIV-1 infected CEM cells, 6 days, XTT, read-out: Cell data (µM) EC60: 50% effective concentration): 107 µM
COc1cc2c(cc1OC)C(=O)N1CSCC1C(=O)S2 (centres unmarked) [Compound 11] | – | – | > 50 | –
COc1cc2c(cc1OC)C(=O)N1CCCC1C(=O)S2 (centres unmarked) [Compound 13] | – | – | > 200 | IC50 [1, 8]: > 1000 µM; IC50 [4]: > 1000 µM
O=C1Sc2ccccc2C(=O)N2CCCCC12 (centres unmarked) [Compound 14] | – | – | > 200 | –
CC(=O)OC1Sc2ccccc2C(=O)N2CCCC12 (centres unmarked) [Compound 21] | – | – | > 200 | IC50 [1, 8]: > 1000 µM; IC50 [4]: > 1000 µM
COC1Sc2ccccc2C(=O)N2CCCC12 (centres unmarked) [Compound 22] | > 1000 µM | > 1000 µM | > 200 | CC50 at 144 h [2]: > 200 µM
O=C1c2ccccc2SCC2CSC(c3ccccc3)N12 (centres unmarked) [Compound 23] | 111 µM | 288 µM | – | –
COc1cc2c(cc1OC)C(=O)N1CCCC1CS2 (centres unmarked) [Compound 24] | – | – | > 200 | IC50 [1, 8]: > 1000 µM; IC50 [4]: > 1000 µM
O=C1c2ccccc2SC(O)C2CCCN12 (centres unmarked) [Compound 25] | – | – | > 200 | IC50 [1, 8]: > 1000 µM; IC50 [4]: > 1000 µM
O=C1Sc2ccccc2Cn2cccc21 [Compound 28] | – | – | 146 | CC50 at 144 h [2]: > 200 µM
CCOC(=O)C1Sc2ccccc2Cn2cccc21 (centres unmarked) [Compound 29] | > 1000 µM | > 1000 µM | – | –
CN(C)Cc1ccc2n1Cc1ccccc1SC2c1ccc(F)cc1 (centres unmarked) [Compound 30] | > 1000 µM | > 1000 µM | – | –
